From patent publication US9029389B2 (Institut Pasteur Korea, priority 2011, dated 2015)

Key:
[1] = target: T1, Human 5-lipoxygenase (Homo sapiens, UniProt P09917); experiment: Activity of compounds against 5-LO enzyme (LTB4 measurement and/or fluorescence method); format: biochemical; details: for inhibition at 10 µM: 5-LO, single concentration of 10 uM in duplicate; for IC50: 6 or 11 point dose response in duplicate
T1 construct: purchased Cayman 60402; host or cells: insect cells
T1 sequence (P09917 1-674): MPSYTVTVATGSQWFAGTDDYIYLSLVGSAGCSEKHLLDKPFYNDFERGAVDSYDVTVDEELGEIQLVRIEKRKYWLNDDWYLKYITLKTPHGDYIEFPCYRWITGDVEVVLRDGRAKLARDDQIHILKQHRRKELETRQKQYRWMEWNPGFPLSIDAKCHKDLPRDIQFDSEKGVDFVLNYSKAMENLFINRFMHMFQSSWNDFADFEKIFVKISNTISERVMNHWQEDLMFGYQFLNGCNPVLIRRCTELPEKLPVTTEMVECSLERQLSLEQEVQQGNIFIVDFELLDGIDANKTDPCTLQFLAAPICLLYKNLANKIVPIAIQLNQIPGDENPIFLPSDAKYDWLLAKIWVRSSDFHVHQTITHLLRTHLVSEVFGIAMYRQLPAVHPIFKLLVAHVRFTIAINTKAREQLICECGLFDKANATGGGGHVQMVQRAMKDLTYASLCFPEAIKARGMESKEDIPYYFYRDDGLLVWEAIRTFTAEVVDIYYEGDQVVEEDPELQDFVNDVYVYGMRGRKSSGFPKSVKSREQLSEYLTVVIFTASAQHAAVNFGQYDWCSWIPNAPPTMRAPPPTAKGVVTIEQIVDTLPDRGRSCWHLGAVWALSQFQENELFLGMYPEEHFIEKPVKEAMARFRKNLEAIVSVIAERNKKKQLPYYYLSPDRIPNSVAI
Method in brief: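 Two read-outs: LTB4 measured by EIA and/or LC/MS/MS with LTB4-d4 standard after 15 min RT compound preincubation with insect-cell 5-LO and a 5 min 37 °C reaction on 3 uM arachidonic acid (0.1 mM ATP, pH 7.4). The room-temperature fluorescence format used 20 uM H2DCFDA, 100 uM ATP, 3 uM arachidonic acid, 5 min; IC50 from 6/11-point curves.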

Row | Compound | inhibition at 10 µM [1] [%] | melting point | IC50 [1] [µM]
1 | CCc1nc2ccc(Cl)cn2c1C(=O)NCc1cccc(OCc2ccc(OC(F)(F)F)cc2)c1 [compound 353, 6-chloro-2-ethyl-N-(3-((4-(trifluoromethoxy)benzyl)oxy)benzyl)imidazo[1,2-a]pyridine-3-carboxamide] | < 40 | > 142.7 °C (dec.) | 
2 | CCc1nc2ccc(Cl)cn2c1C(=O)NCc1cccc(N2CCC(c3ccc(OC(F)(F)F)cc3)CC2)c1 [compound 354, 6-chloro-2-ethyl-N-(3-(4-(4-(trifluoromethoxy)phenyl)piperidin-1-yl)benzyl)imidazo[1,2-a]pyridine-3-carboxamide] | < 40 | 135.5 to 136.4 °C | 
3 | CCc1nc2ccc(Cl)cn2c1C(=O)NCc1cccc(CC(=O)Nc2ccc(F)cc2)c1 [compound 355, 6-chloro-2-ethyl-N-(3-(2-((4-fluorophenyl)amino)-2-oxoethyl)benzyl)imidazo[1,2-a]pyridine-3-carboxamide] | < 40 | > 198.8 °C (dec.) | 
4 | CCc1nc2ccc(Cl)cn2c1C(=O)NCc1cccc(N2CCN(c3ccc(OC(F)(F)F)cc3)CC2)c1 [compound 356, 6-chloro-2-ethyl-N-(3-(4-(4-(trifluoromethoxy)phenyl)piperazin-1-yl)benzyl)imidazo[1,2-a]pyridine-3-carboxamide] | 40 to 69 | > 168 °C (dec.) | 
5 | CCc1nc2ccc(Cl)cn2c1C(=O)NCc1ccc(CC2CCOCC2)cc1 [compound 358, 6-chloro-2-ethyl-N-(4-((tetrahydro-2H-pyran-4-yl)methyl)benzyl)imidazo[1,2-a]pyridine-3-carboxamide] | < 40 | 132.2 to 133 °C | 
6 | CCc1nc2cc(Cl)ccn2c1C(=O)NCc1ccc(CC2CCOCC2)cc1 [compound 359, 7-chloro-2-ethyl-N-(4-((tetrahydro-2H-pyran-4-yl)methyl)benzyl)imidazo[1,2-a]pyridine-3-carboxamide] | < 40 | > 125.9 °C (dec.) | 
7 | CCc1nc2ccc(Cl)cn2c1C(=O)NCc1cccc(N2CCC(Oc3ccc(OC(F)(F)F)cc3)CC2)c1 [compound 360, 6-chloro-2-ethyl-N-(3-(4-(4-(trifluoromethoxy)phenoxy)piperidin-1-yl)benzyl)imidazo[1,2-a]pyridine-3-carboxamide] | 40 to 69 | 126.3 to 127.2 °C | 
8 | CCc1nc2ccc(Cl)cn2c1C(=O)NCc1cc2cc(Cl)ccc2s1 [compound 361, 6-chloro-N-((5-chlorobenzo[b]thiophen-2-yl)methyl)-2-ethylimidazo[1,2-a]pyridine-3-carboxamide] | < 40 | > 220 °C | 
9 | CCc1nc2ccccn2c1C(=O)NCc1ccc(C2CCOCC2)cc1 [compound 362, 2-ethyl-N-(4-(tetrahydro-2H-pyran-4-yl)benzyl)imidazo[1,2-a]pyridine-3-carboxamide] | < 40 | > 133.7 °C (dec.) | 
10 | CCc1nc2ccc(Cl)cn2c1C(=O)NCc1ccc(C2CCOCC2)cc1 [compound 363, 6-chloro-2-ethyl-N-(4-(tetrahydro-2H-pyran-4-yl)benzyl)imidazo[1,2-a]pyridine-3-carboxamide] | < 40 | > 195.5 °C (dec.) | 
11 | CCc1nc2cc(Cl)ccn2c1C(=O)NCc1ccc(C2CCOCC2)cc1 [compound 364, 7-chloro-2-ethyl-N-(4-(tetrahydro-2H-pyran-4-yl)benzyl)imidazo[1,2-a]pyridine-3-carboxamide] | < 40 | > 156.6 °C (dec.) | 
12 | CCc1nc2ccc(Cl)cn2c1C(=O)NCc1cc2cc(Cl)ccc2o1 [compound 366, 6-chloro-N-((5-chlorobenzofuran-2-yl)methyl)-2-ethylimidazo[1,2-a]pyridine-3-carboxamide] | < 40 | 223.5 to 225.6 °C | 
13 | CCc1nc2ccc(Cl)cn2c1C(=O)NCc1nc2ccc(Cl)cc2n1C [compound 367, 6-chloro-N-((6-chloro-1-methyl-1H-benzo[d]imidazol-2-yl)methyl)-2-ethylimidazo[1,2-a]pyridine-3-carboxamide] | < 40 | > 220 °C | 
14 | CCc1nc2ccc(Cl)cn2c1C(=O)NCc1nc2cc(Cl)ccc2n1C [compound 368, 6-chloro-N-((5-chloro-1-methyl-1H-benzo[d]imidazol-2-yl)methyl)-2-ethylimidazo[1,2-a]pyridine-3-carboxamide] | < 40 | > 220 °C | 
15 | CCc1nc2ccc(Cl)cn2c1C(=O)NCc1nc2ccc(Cl)cc2o1 [compound 369, 6-chloro-N-((6-chlorobenzo[d]oxazol-2-yl)methyl)-2-ethylimidazo[1,2-a]pyridine-3-carboxamide] | < 40 | 201.1 to 201.8 °C | 
16 | CCc1nc2cc(Cl)ccn2c1C(=O)NCc1nc2cc(-c3ccc(OC(F)(F)F)cc3)ccc2o1 [compound 370, 7-chloro-2-ethyl-N-((5-(4-(trifluoromethoxy)phenyl)benzo[d]oxazol-2-yl)methyl)imidazo[1,2-a]pyridine-3-carboxamide] | < 40 | > 220 °C | 
17 | CCc1nc2ccc(Cl)cn2c1C(=O)NCc1nc2ccc(Cl)cc2s1 [compound 371, 6-chloro-N-((6-chlorobenzo[d]thiazol-2-yl)methyl)-2-ethylimidazo[1,2-a]pyridine-3-carboxamide] | < 40 | > 220 °C | 
18 | CCc1nc2ccc(F)cn2c1C(=O)NCc1ccc(N2CCC(c3ccc(OC(F)(F)F)cc3)CC2)cc1 [compound 372, 2-ethyl-6-fluoro-N-(4-(4-(4-(trifluoromethoxy)phenyl)piperidin-1-yl)benzyl)imidazo[1,2-a]pyridine-3-carboxamide] | < 40 | > 167.9 °C (dec.) | 
19 | CCc1nc2c(F)cccn2c1C(=O)NCc1ccc(N2CCC(c3ccc(OC(F)(F)F)cc3)CC2)cc1 [compound 373, 2-ethyl-8-fluoro-N-(4-(4-(4-(trifluoromethoxy)phenyl)piperidin-1-yl)benzyl)imidazo[1,2-a]pyridine-3-carboxamide] | 40 to 69 | > 177.7 °C (dec.) | 
20 | CCc1nc2cc(Cl)ccn2c1C(=O)NCc1nc2ccc(-c3ccc(OC(F)(F)F)cc3)cc2o1 [compound 374, 7-chloro-2-ethyl-N-((6-(4-(trifluoromethoxy)phenyl)benzo[d]oxazol-2-yl)methyl)imidazo[1,2-a]pyridine-3-carboxamide] | < 40 | > 220 °C | 
21 | CCc1nc2cc(Cl)ccn2c1C(=O)NCc1ccc(N2CC(Cc3ccc(F)cc3)OC2=O)cc1 (stereo not drawn) [compound 377, 7-chloro-2-ethyl-N-(4-(5-(4-fluorobenzyl)-2-oxooxazolidin-3-yl)benzyl)imidazo[1,2-a]pyridine-3-carboxamide] | < 40 | > 96.9 °C (dec.) | 
22 | CCc1nc2cc(Cl)ccn2c1C(=O)NCc1ccc(N2CC(COc3ccc(F)cc3)OC2=O)cc1 (stereo not drawn) [compound 378, 7-chloro-2-ethyl-N-(4-(5-((4-fluorophenoxy)methyl)-2-oxooxazolidin-3-yl)benzyl)imidazo[1,2-a]pyridine-3-carboxamide] | < 40 | > 97.1 °C | 
23 | CCc1nc2ccc(Cl)cn2c1CNc1ccc(Oc2ccc(F)cc2)cc1 [compound 379, N-((6-Chloro-2-ethylimidazo[1,2-a]pyridin-3-yl)methyl)-4-(4-fluorophenoxy)aniline] |  | 148.6 to 148.8 °C | 1 to 20
24 | CCc1nc2ccc(Cl)cn2c1CNc1ccc(-c2ccc(OC(F)(F)F)cc2)cc1 [compound 383, N-((6-chloro-2-ethylimidazo[1,2-a]pyridin-3-yl)methyl)-4′-(trifluoromethoxy)biphenyl-4-amine] |  | 102 °C | > 20
25 | CCc1nc2ccc(Cl)cn2c1C(=O)N1CCC(Oc2ccc(OC(F)(F)F)cc2)CC1 [compound 384, (6-Chloro-2-ethylimidazo[1,2-a]pyridin-3-yl)(4-(4-(trifluoromethoxy)phenoxy)piperidin-1-yl)methanone] |  | 80.7 °C | 1 to 20
26 | CCc1nc2ncccn2c1C(=O)NCc1ccc(-c2ccc(Cl)cc2)cc1 [compound 386, N-((4′-Chloro-[1,1′-biphenyl]-4-yl)methyl)-2-ethylimidazo[1,2-a]pyrimidine-3-carboxamide] |  | 184.8 °C | 1 to 20
27 | CCc1nc2ccc(Cl)cn2c1CNc1ccc(N2CCC(c3ccc(Cl)cc3)CC2)cc1 [compound 392, N-((6-chloro-2-ethylimidazo[1,2-a]pyridin-3-yl)methyl)-4-(4-(4-chlorophenyl)piperidin-1-yl)aniline] |  | 159.5 °C | 1 to 20
